Reference: publication PMC11085544, “Anticholinesterase Activity of Methanolic Extract of Amorpha fruticosa Flowers and Isolation of Rotenoids and Putrescine and Spermidine Derivatives” (Plants, 2024)

Tests used:
Type in all cases: biochemical
[1] = biological target: T1, AChE (acetylcholinesterase) (Electrophorus electricus, UniProt O42275); assay: Ellman colorimetric assay with electric eel AChE, % inhibition at […]; details: 100 µM
[2] = biological target: T1, AChE (acetylcholinesterase); assay: Ellman colorimetric assay with electric eel AChE
[3] = biological target: T2, BuChE (butyrylcholinesterase) (Equus caballus, UniProt P81908); assay: Ellman colorimetric assay with equine serum BuChE, % inhibition at […]
T2 construct: gene BCHE
T2 sequence (P81908 whole entry): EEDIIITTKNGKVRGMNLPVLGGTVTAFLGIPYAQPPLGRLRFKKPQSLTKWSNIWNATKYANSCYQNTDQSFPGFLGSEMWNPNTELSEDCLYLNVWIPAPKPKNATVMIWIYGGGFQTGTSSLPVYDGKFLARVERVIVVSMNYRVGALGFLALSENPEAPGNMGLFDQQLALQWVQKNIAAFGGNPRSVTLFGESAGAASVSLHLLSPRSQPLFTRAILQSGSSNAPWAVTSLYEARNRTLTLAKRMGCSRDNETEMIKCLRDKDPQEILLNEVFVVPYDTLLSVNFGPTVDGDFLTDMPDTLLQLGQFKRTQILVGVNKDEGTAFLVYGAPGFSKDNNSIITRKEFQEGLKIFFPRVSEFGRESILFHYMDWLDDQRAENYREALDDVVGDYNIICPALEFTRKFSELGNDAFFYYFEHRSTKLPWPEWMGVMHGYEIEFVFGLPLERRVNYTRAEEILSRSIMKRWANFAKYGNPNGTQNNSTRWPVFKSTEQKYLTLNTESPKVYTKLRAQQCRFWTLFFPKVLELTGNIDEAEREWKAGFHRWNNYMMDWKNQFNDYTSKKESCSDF

T1 sequence (O42275 24-633): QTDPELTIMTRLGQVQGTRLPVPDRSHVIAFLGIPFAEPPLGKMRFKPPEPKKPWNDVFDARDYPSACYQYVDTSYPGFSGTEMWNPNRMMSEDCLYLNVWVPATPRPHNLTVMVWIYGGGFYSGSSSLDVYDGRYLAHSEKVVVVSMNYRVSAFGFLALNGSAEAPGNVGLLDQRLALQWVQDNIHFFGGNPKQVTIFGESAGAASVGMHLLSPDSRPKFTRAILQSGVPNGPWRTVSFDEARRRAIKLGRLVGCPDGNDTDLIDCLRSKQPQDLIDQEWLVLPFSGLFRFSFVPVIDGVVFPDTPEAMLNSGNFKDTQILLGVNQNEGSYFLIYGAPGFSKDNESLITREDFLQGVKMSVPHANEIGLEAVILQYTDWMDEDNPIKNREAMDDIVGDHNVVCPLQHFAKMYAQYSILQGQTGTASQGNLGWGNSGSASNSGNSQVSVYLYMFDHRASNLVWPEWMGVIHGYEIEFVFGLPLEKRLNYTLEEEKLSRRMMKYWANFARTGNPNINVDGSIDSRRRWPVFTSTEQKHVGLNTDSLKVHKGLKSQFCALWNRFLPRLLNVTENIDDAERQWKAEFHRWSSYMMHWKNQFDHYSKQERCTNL

Compound | % Inhibition of AChE [1] | IC50 [2] [µM] | inhibition at 100 µM [3] [%]
6-deoxyclitoriacetal [compound 7] | 37.9 ± 5.0 |  | 
O=C(/C=C/c1ccc(O)cc1)NCCCCN(CCCNC(=O)/C=C/c1ccc(O)cc1)C(=O)/C=C/c1ccc(O)cc1 [compound 5, N^1,N^5,N^10-(E)-tri-p-coumaroylspermidine] |  | 102 ± 8.1 | 43.8 ± 1.9
COC1=CC(=O)[C@]2(C=C1OC)OC[C@H]1Oc3c(ccc4c3C=CC(C)(C)O4)C(=O)[C@H]12 [compound 8, amorphispironone] |  |  | 37.6 ± 2.7
